# Laboratory results reported in US20070128217A1 (priority 2003, published 2007).
# Columns and labels:
# [1] = system: antibodies in sera from SARS patients (sera 1a, 1b, 2, 6, 37, 62, London, SARS-yellow, SARS-green); assay type: binding, human; set-up: Binding of serum 6 to linear peptides of protein X1 of SARS-CoV Urbani / Binding of serum 37 to linear peptides of protein X1 of SARS-CoV Urbani / Binding of serum 6 to looped/cyclic peptide (PEPSCAN-ELISA) / Binding of serum 37 to looped/cyclic peptide (PEPSCAN-ELISA) / Binding of serum 37 to looped/cyclic peptides of protein X1 of SARS-CoV Urbani / Binding of serum 6 to linear peptides of protein X2 / Binding of serum 37 to linear peptides of protein X2 / Binding of serum 37 to looped/cyclic peptides of protein X2 of SARS-CoV Urbani / Binding of serum 6 to linear peptides of protein M of SARS-CoV Urbani / Binding of serum 37 to linear peptides of protein M of SARS-CoV Urbani / Binding of serum 6 to looped/cyclic peptides of protein M of SARS-CoV Urbani / Binding of serum 37 to looped/cyclic peptides of protein M of SARS-CoV Urbani / Binding of serum 6 to linear peptides of protein X3 of SARS-CoV Urbani / Binding of serum 37 to linear peptides of protein X3 of SARS-CoV Urbani / Binding of serum 37 to looped/cyclic peptides of protein X3 of SARS-CoV Urbani / Binding of serum 6 to linear peptides of protein X4 of SARS-CoV Urbani / Binding of serum 37 to linear peptides of protein X4 of SARS-CoV Urbani / Binding of serum 37 to looped/cyclic peptides of protein X4 of SARS-CoV Urbani / Binding of serum 6 to linear peptides of protein X5 of SARS-CoV Urbani / Binding of serum 37 to linear peptides of protein X5 of SARS-CoV Urbani / Binding of serum 37 to looped/cyclic peptides of protein X5 of SARS-CoV Urbani / Binding of serum 6 to linear peptides of protein N of SARS-CoV Urbani / Binding of serum 37 to linear peptides of protein N of SARS-CoV Urbani / Binding of serum 6 to linear peptide (PEPSCAN-ELISA) / Binding of serum 1a to looped/cyclic peptides of protein N of SARS-CoV Urbani / Binding of serum 1b to looped/cyclic peptides of protein N of SARS-CoV Urbani / Binding of serum 2 to looped/cyclic peptides of protein N of SARS-CoV Urbani / Binding of serum 6 to looped/cyclic peptides of protein N of SARS-CoV Urbani / Binding of serum 37 to looped/cyclic peptides of protein N of SARS-CoV Urbani / Binding of serum 62 to looped/cyclic peptides of protein N of SARS-CoV Urbani / Binding of serum London to looped/cyclic peptides of protein N of SARS-CoV Urbani / Binding of serum SARS-green to looped/cyclic peptides of protein N of SARS-CoV Urbani: unit not given here
# [2] = system: control sera (pooled serum of ten healthy LUMC hospital workers; commercial negative donor pooled serum from the Dutch bloodbank); assay type: binding, human; set-up: Binding of Control serum LUMC to linear peptides / Binding of Control serum Blood-bank to linear peptides / Binding of Control serum LUMC to looped peptides / Binding of Control Serum Blood-Bank to Looped peptides / Binding of Control serum LUMC to linear peptides of the protein M of SARS-CoV Urbani / Binding of Control serum Blood-bank to linear peptides of the protein M of SARS-CoV Urbani / Binding of Control serum LUMC to looped peptides of the protein M of SARS-CoV Urbani / Binding of Control Serum Blood-Bank to Looped peptides of the protein M of SARS-CoV Urbani: unit not given here
# [3] = system: rabbit serum obtained by immunizing a rabbit with the SARS-CoV strain Frankfurt 1; assay type: binding; set-up: Binding of a rabbit serum to linear peptides / Binding of a rabbit serum to looped peptides / Rabbit serum linear peptides / Rabbit serum looped peptides / Binding of a rabbit serum to linear peptides of protein N of SARS-CoV Urbani (Rabbit serum linear peptides) / Binding of a rabbit serum to looped/cyclic peptides of protein N of SARS-CoV Urbani (Rabbit serum looped peptides): unit not given here
sequence,measurement,setting,value
SPKFTTSLSLHKLLQ,Binding of serum 1a to linear peptides of protein X2,[1],0.6
same,Binding of serum 1a to looped/cyclic peptides of protein X2 of SARS-CoV Urbani,[1],0.5
same,Binding of serum 1b to linear peptides of protein X2,[1],0.4
same,Binding of serum 1b to looped/cyclic peptides of protein X2 of SARS-CoV Urbani,[1],0.5
same,Binding of serum 2 to linear peptides of protein X2,[1],0.4
same,Binding of serum 2 to looped/cyclic peptides of protein X2 of SARS-CoV Urbani,[1],0.3
same,Binding of serum 6 to linear peptides of protein X2,[1],0.4
same,Binding of serum 6 to looped/cyclic peptides of protein X2 of SARS-CoV Urbani,[1],0.4
same,Binding of serum 37 to linear peptides of protein X2,[1],0.5
same,Binding of serum 37 to looped/cyclic peptides of protein X2 of SARS-CoV Urbani,[1],0.3
same,Binding of serum 62 to linear peptides of protein X2,[1],0.5
same,Binding of serum 62 to looped/cyclic peptides of protein X2 of SARS-CoV Urbani,[1],0.5
same,Binding of serum London to linear peptides of protein X2,[1],0.4
same,Binding of serum London to looped/cyclic peptides of protein X2 of SARS-CoV Urbani,[1],0.2
same,Binding of serum SARS-green to linear peptides of protein X2,[1],0.5
same,Binding of serum SARS-green to looped/cyclic peptides of protein X2 of SARS-CoV Urbani,[1],0.2
same,Binding of serum SARS-yellow to linear peptides of protein X2,[1],0.3
same,Binding of serum SARS-yellow to looped/cyclic peptides of protein X2 of SARS-CoV Urbani,[1],0.3
same,Binding of Control Serum Blood-Bank to Looped peptides,[2],0.5
same,Binding of Control serum Blood-bank to linear peptides,[2],0.5
same,Binding of Control serum LUMC to linear peptides,[2],0.3
same,Binding of Control serum LUMC to looped peptides,[2],0.6
same,Binding of a rabbit serum to linear peptides,[3],0.3
same,Binding of a rabbit serum to looped peptides,[3],0.5
RIIMRCWLCWKCKSK,Binding of serum 1a to looped/cyclic peptide (PEPSCAN-ELISA),[1],0.2
same,Binding of serum 1b to looped/cyclic peptide (PEPSCAN-ELISA),[1],0.2
same,Binding of serum 2 to looped/cyclic peptide (PEPSCAN-ELISA),[1],0.1
same,Binding of serum 6 to looped/cyclic peptide (PEPSCAN-ELISA),[1],0.1
same,Binding of serum 37 to looped/cyclic peptide (PEPSCAN-ELISA),[1],0.2
same,Binding of serum 62 to looped/cyclic peptide (PEPSCAN-ELISA),[1],0.3
same,Binding of serum London to looped/cyclic peptide (PEPSCAN-ELISA),[1],0.1
same,Binding of serum SARS-green to looped/cyclic peptide (PEPSCAN-ELISA),[1],0.1
same,Binding of serum SARS-yellow to looped/cyclic peptide (PEPSCAN-ELISA),[1],0.1
same,"Recognition of the peptide by sera of SARS-CoV infected individuals, and form (linear, looped/cyclic) in which it is recognized",[1],recognized in linear form
same,Binding of Control Serum Blood-Bank to Looped peptides,[2],0.3
same,Binding of Control serum Blood-bank to linear peptides,[2],0.3
same,Binding of Control serum LUMC to linear peptides,[2],0.2
same,Binding of Control serum LUMC to looped peptides,[2],0.3
same,Binding of a rabbit serum to linear peptides,[3],0.1
same,Binding of a rabbit serum to looped peptides,[3],0.3
TDSGFAAYNRYRIGN,Binding of serum 1a to linear peptides of protein M of SARS-CoV Urbani,[1],0.6
same,Binding of serum 1a to looped/cyclic peptides of protein M of SARS-CoV Urbani,[1],0.7
same,Binding of serum 1b to linear peptides of protein M of SARS-CoV Urbani,[1],0.4
same,Binding of serum 1b to looped/cyclic peptides of protein M of SARS-CoV Urbani,[1],0.5
same,Binding of serum 2 to linear peptides of protein M of SARS-CoV Urbani,[1],0.5
same,Binding of serum 2 to looped/cyclic peptides of protein M of SARS-CoV Urbani,[1],0.6
same,Binding of serum 6 to linear peptides of protein M of SARS-CoV Urbani,[1],0.4
same,Binding of serum 6 to looped/cyclic peptides of protein M of SARS-CoV Urbani,[1],0.9
same,Binding of serum 37 to linear peptides of protein M of SARS-CoV Urbani,[1],0.4
same,Binding of serum 37 to looped/cyclic peptides of protein M of SARS-CoV Urbani,[1],0.7
same,Binding of serum 62 to linear peptides of protein M of SARS-CoV Urbani,[1],0.6
same,Binding of serum 62 to looped/cyclic peptides of protein M of SARS-CoV Urbani,[1],0.7
same,Binding of serum London to linear peptides of protein M of SARS-CoV Urbani,[1],0.3
same,Binding of serum London to looped/cyclic peptides of protein M of SARS-CoV Urbani,[1],0.2
same,Binding of serum SARS-green to linear peptides of protein M of SARS-CoV Urbani,[1],0.3
same,Binding of serum SARS-green to looped/cyclic peptides of protein M of SARS-CoV Urbani,[1],0.1
same,Binding of serum SARS-yellow to linear peptides of protein M of SARS-CoV Urbani,[1],0.0
same,Binding of serum SARS-yellow to looped/cyclic peptides of protein M of SARS-CoV Urbani,[1],0.8
same,Binding of Control Serum Blood-Bank to Looped peptides of the protein M of SARS-CoV Urbani,[2],0.6
same,Binding of Control serum Blood-bank to linear peptides of the protein M of SARS-CoV Urbani,[2],0.7
same,Binding of Control serum LUMC to linear peptides of the protein M of SARS-CoV Urbani,[2],0.3
same,Binding of Control serum LUMC to looped peptides of the protein M of SARS-CoV Urbani,[2],0.7
same,Rabbit serum linear peptides,[3],0.0
same,Rabbit serum looped peptides,[3],0.5
